Reference: ChEMBL document CHEMBL1140732, “2-(3-aryl-3-oxopropen-1-yl)-9-tert-butyl-paullones: a new antileishmanial chemotype” (J Med Chem, 2008)

Columns and labels:
[1] = test system: Leishmania donovani; assay: microbe, parasite or virus in culture; assay type: functional; settings: 1S-C12d
Description: Antileishmanial activity against Leishmania donovani MHOM/SD/1962/1S-C12d axenic amastigotes by alamar blue viability assay

[2] = test system: Leishmania donovani; assay: microbe, parasite or virus in culture; assay type: functional; settings: 1S-C12d; remark: listed apart in the source
Description: Antileishmanial activity against Leishmania donovani MHOM/SD/1962/1S-C12d axenic amastigotes at 15 uM by alamar blue viability assay

[3] = test system: Leishmania donovani; assay: microbe, parasite or virus in culture; assay type: functional; settings: 1S-C12d, THP-1
Description: Growth inhibition of Leishmania donovani MHOM/SD/1962/1S-C12d axenic amastigotes in infected THP1 macrophages at 5 uM by alamar blue viability assay

[4] = test system: THP-1; assay: Toxicity against human THP1 cells at 5 uM by alamar blue viability assay; settings: thp-1, 5 µM
[5] = test system: THP-1; assay: Toxicity against human THP1 cells at 1 uM by alamar blue viability assay; assay type: cell-based; settings: thp-1, 1 µM
[6] = test system: Leishmania donovani; assay: Growth inhibition of Leishmania donovani MHOM/SD/1962/1S-C12d […] amastigotes in infected THP1 macrophages at 1 uM by alamar blue viability assay; assay type: functional; settings: THP-1
[7] = Inhibition of fumarate reductase in crude mitochondria fraction of Leishmania major promastigotes
[8] = Inhibition of fumarate reductase in permeabilized Leishmania major promastigotes
[9] = test system: Leishmania donovani; assay: Inhibition of Leishmania donovani infection in mouse macrophages; assay type: functional; settings: read-out: ED50 (the source's name)
[10] = Toxicity against mouse macrophages at 10 uM; assay type: cell-based; settings: macrophage

| SMILES | GI50 [1] [nM] | inhibition at 15 µM [2] [%] | inhibition at 5 µM [3] [%] | Activity [4] [%] | Activity [5] [%] | inhibition at 1 µM [6] [%] | IC50 [7] [nM] | IC50 [8] [nM] | EC50 [9] [nM] | Activity [10] |
| --- | --- | --- | --- | --- | --- | --- | --- | --- | --- | --- |
| CC(=O)/C=C/c1ccc2c(c1)-c1[nH]c3ccc(C)cc3c1CC(=O)N2 | 12000 | 65.2 | 0 | 0 | – | – | – | – | – | – |
| CC(=O)/C=C/c1ccc2c(c1)-c1[nH]c3ccc(C#N)cc3c1CC(=O)N2 | – | 9.8 | 0 | 48 | – | – | – | – | – | – |
| CC(=O)/C=C/c1ccc2c(c1)-c1[nH]c3ccc(C(C)(C)C)cc3c1CC(=O)N2 | 2800 | 99 | 56.2 | 62 | – | – | – | – | – | – |
| O=C1Cc2c([nH]c3ccccc23)-c2cc(/C=C/C(=O)c3ccccc3)ccc2N1 | 5000 | 99.6 | 0 | 0 | – | – | – | – | – | – |
| Cc1ccc2[nH]c3c(c2c1)CC(=O)Nc1ccc(/C=C/C(=O)c2ccc(Cl)cc2)cc1-3 | – | 17.4 | 0 | 0 | – | – | – | – | – | – |
| CC(C)(C)c1ccc2[nH]c3c(c2c1)CC(=O)Nc1ccc(/C=C/C(=O)c2ccccc2)cc1-3 | 1100 | 99 | 61.8 | 0 | – | – | – | – | – | – |
| COc1ccc(C(=O)/C=C/c2ccc3c(c2)-c2[nH]c4ccc(C(C)(C)C)cc4c2CC(=O)N3)cc1 | 1200 | 97.5 | 71.7 | 0 | – | – | – | – | – | – |
| CC(C)(C)c1ccc2[nH]c3c(c2c1)CC(=O)Nc1ccc(/C=C/C(=O)c2ccc(Cl)cc2)cc1-3 | 1200 | 98.3 | 76.8 | 0 | – | – | – | – | – | – |
| CC(C)(C)c1ccc2[nH]c3c(c2c1)CC(=O)Nc1ccc(/C=C/C(=O)c2ccco2)cc1-3 | 760 | 97.6 | 76.2 | 3.3 | – | – | – | – | – | – |
| CC(C)(C)c1ccc2[nH]c3c(c2c1)CC(=O)Nc1ccc(/C=C/C(=O)c2cccnc2)cc1-3 | 780 | 98.1 | 76.2 | 0 | – | – | – | – | – | – |
| COc1cc(C(=O)/C=C/c2ccc3c(c2)-c2[nH]c4ccc(C(C)(C)C)cc4c2CC(=O)N3)cc(OC)c1OC | 1100 | 96.8 | 99.2 | 92.7 | – | – | – | – | – | – |
| COc1ccc(OC)c(C(=O)/C=C/c2ccc3c(c2)-c2[nH]c4ccc(C(C)(C)C)cc4c2CC(=O)N3)c1 | 1100 | 96.8 | 93.8 | 95.7 | – | – | – | – | – | – |
| COc1ccc(C(=O)/C=C/c2ccc3c(c2)-c2[nH]c4ccc(C(C)(C)C)cc4c2CC(=O)N3)c(OC)c1 | 840 | 93.6 | 85.6 | 0 | – | – | – | – | – | – |
| COc1ccc(C(=O)/C=C/c2ccc3c(c2)-c2[nH]c4ccc(C(C)(C)C)cc4c2CC(=O)N3)cc1OC | 1000 | 95.5 | 86 | 49.7 | – | – | – | – | – | – |
| CC(=O)/C=C/c1ccc2c(c1)-c1[nH]c3ccccc3c1CC(=O)N2 | 3400 | 98.7 | 11.4 | 0 | – | – | – | – | – | – |
| CC(=O)/C=C/c1ccc2c(c1)-c1[nH]c3ccc(F)cc3c1CC(=O)N2 | – | 45.4 | 0 | 0 | – | – | – | – | – | – |
| CC(C)(C)c1ccc2[nH]c3c(c2c1)CC(=O)Nc1ccc(/C=C/C(=O)c2cccs2)cc1-3 | 1000 | 98.8 | 79.3 | 60.5 | – | – | – | – | – | – |
| CC(C)(C)c1ccc2[nH]c3c(c2c1)CC(=O)Nc1ccc(/C=C/C(=O)c2ccc(O)cc2)cc1-3 | 3000 | 97.2 | 54.8 | 80.3 | – | – | – | – | – | – |
| CC(C)(C)c1ccc2[nH]c3c(c2c1)CC(=O)Nc1ccc(/C=C/C#N)cc1-3 | 3600 | 63.8 | 47.3 | 0 | – | – | – | – | – | – |
| CC(C)(C)c1ccc2[nH]c3c(c2c1)CC(=O)Nc1ccc(C#Cc2ccccc2)cc1-3 | 860 | 79.6 | 72 | 9 | – | – | – | – | – | – |
| COc1ccc(C(=O)/C=C/c2ccc(NC(C)=O)cc2)cc1 | – | 69.6 | – | – | – | – | – | – | – | – |
| C[C@@H]1[C@H](O)[C@@H](C)/C=C/C=C/C=C/C=C/C=C/C=C/C=C/[C@H](O[C@@H]2O[C@H](C)[C@@H](O)[C@H](N)[C@@H]2O)C[C@@H]2O[C@](O)(C[C@@H](O)C[C@@H](O)[C@H](O)CC[C@@H](O)C[C@@H](O)CC(=O)O[C@H]1C)C[C@H](O)[C@H]2C(=O)O (stereo in doubt) [AMPHOTERICIN B] | – | – | – | – | > 90 | > 90 | – | – | – | – |
| C=CC(C)(C)c1cc(/C=C/C(=O)c2ccc(O)cc2)c(OC)cc1O [LICOAGROCHACONE A] | – | – | – | – | – | – | 1400 | 1200 | – | – |
| N#Cc1ccc2[nH]c3c(c2c1)CC(=O)Nc1ccccc1-3 [PAULLONE 2] | – | – | – | – | – | – | – | – | 19600 | Toxic |
